From patent US8754257B2, “Pharmaceutical-grade ferric organic compounds, uses thereof and methods of making same” (GloboAsia, LLC, priority 2003, dated 2014)
“Also recorded” adds a separate entry of the source.

What was measured:
[1] = system: patients with kidney disease; conditions: patients with kidney disease receiving doses of ferric citrate; cited from earlier work
[2] = system: patients with End Stage Renal Disease (ESRD); conditions: cited from earlier work
[3] = BET active surface area measurement; type: physicochemical; conditions: for BET Active Surface Area: Table 2, one value per pair of samples -1/-2
Experimental: The analysis of active surface area is based on BET theory which describes the phenomenon of mass and energy interaction and phase changes during as adsorption onto solid surfaces and in pore spaces. In BET active surface area measurement, the volume of a monolayer of gas is determined which allows the surface area of the sample to be determined using the area occupied by a single layer of adsorbed gas molecule.

[4] = Intrinsic dissolution rate of ferric citrate; type: physicochemical; conditions: for Intrinsic Dissolution Rates: 37° C., solutions of pH 8
Text: The intrinsic dissolution rate is defined as the dissolution rate of pure substances under the condition of constant surface area. […] The measured intrinsic dissolution rate is dependent on these solid-state properties and is typically determined by exposing a constant surface area of a material to an appropriate dissolution medium while maintaining constant temperature, stirring rate, and pH.

[5] = system: patients; test: Clinical study of pharmaceutical-grade ferric citrate in patients in vivo; set-up: species or system human
Experimental: Ferric citrate is supplied in 500 mg capsules, whereas the placebo will be provided in identical-looking capsules (indistinguishable from those containing the active drug); the placebo capsules will contain sorbitol and colorant to match the powder color of the active capsules. The placebo capsule shells will be identical to the active capsule shells.
An non-limiting example of a dosing regimen is provided below. This is not meant to limit the invention as to how an effective amount of ferric citrate is selected, or the form in which it is provided or the frequency of administering the composition per day. The following merely illustrates how ferric citrate and placebo may be administered; e.g., as 500 mg capsules of identical appearance. All patients may receive (in a blinded fashion) 4 capsules with each of three meals, on a daily basis, for 28 days. Patients will be instructed to take the study medication within 10 minutes of finishing their meals (breakfast, lunch, and dinner).
• 4 placebo capsules, with breakfast. • 4 placebo capsules, with lunch. • 4 placebo capsules with dinner Ferric Citrate 2 g Per Day Arm of the Study • 1 ferric citrate capsule and 3 placebo capsules with breakfast • 1 ferric citrate capsule and 3 placebo capsules with lunch • 2 ferric citrate capsules and 2 placebo capsules with dinner Ferric Citrate 4 g Per Day Arm • 2 ferric citrate capsules and 2 placebo capsules with breakfast • 3 ferric citrate capsule and 1 placebo capsule with lunch • 3 ferric citrate capsules and 1 placebo capsule with dinner Ferric Citrate 6 g Per Day Arm • 4 ferric citrate capsules with breakfast • 4 ferric citrate capsules with lunch • 4 ferric citrate capsules with dinner B. Clinical Schedule and Assessments Duration of Study Treatment
Each patient's participation in the trial lasts for up to 8 weeks: the screening period (approximately 1-2 weeks), a 1-2 week washout, and 4 weeks of treatment with study medication.
The following procedures will be performed at the first screening visit: • 1. Medical history, including concomitant medications. • 2. Demographic data • 3. Physical examination, including height, weight, and vital signs. • 4. Dietary interview, using 24 hour recall method, to assess dietary intake of calcium and phosphorous, three times during screening period, to include one dialysis day, one non-dialysis day, and one weekend day. Note: Dietary interview may be also performed, in part or in whole, during the washout period. • 5. […]

## ferric citrate
[1]
  calcium deposits on the eye: reversal of calcium deposits on the eye
[2]; 3 g daily
  GI symptoms: mild, hut tolerable GI symptoms
  change in serum P04: significant decrease in serum P04
[2]
  efficacy in reducing serum P04 compared with calcium carbonate (3 g daily): not as effective as calcium carbonate

## ferric citrate [RFS-12-1, reference compound]
[3]
  BET Active Surface Area: 0.61

## ferric citrate [STM-134-1]
[3]
  BET Active Surface Area: 16.17

## ferric citrate [PAN031203C]
[4]
  Intrinsic Dissolution Rates: 2.68 mg/cm2/min

## ferric citrate [ferric citrate of the present invention]
[3]
  BET active surface area relative to commercially available ferric citrate: at least 16 times
[4]; experiment simulating the alkaline condition in the small intestine
  dissolution rate compared with commercially available ferric citrate: better dissolution rate than the commercially available ferric citrate
[4]; pH 8.0
  intrinsic dissolution rate relative to commercially available ferric citrate: 3.08 times
[5]; FIG. 12
  adverse side effects compared with placebo: not statistically different from chose associated with the placebo
[5]; oral capsules, FIG. 12, listed as pharmaceutical grade ferric citrate
  adverse side effects / safety profile compared with chemical grade ferric citrate: less adverse clinical effects; also recorded: significantly more desirable safety profile
[5]; oral capsules, FIG. 12, listed as pharmaceutical-grade ferric citrate
  adverse side effects / safety profile compared with chemical grade ferric citrate: less adverse side effects than chemical grade ferric citrate
[5]; oral capsules, FIG. 13, listed as pharmaceutical-grade ferric citrate
  efficacy compared with chemical grade ferric citrate: approximately equal so that of chemical grade ferric citrate

## ferric citrate [PAN031203B]
[4]
  Intrinsic Dissolution Rates: 4.00 mg/cm2/min

## ferric citrate [PAN031203A]
[4]
  Intrinsic Dissolution Rates: 3.82 mg/cm2/min

## ferric citrate [PAN031203D]
[4]
  Intrinsic Dissolution Rates: 2.95 mg/cm2/min

## ferric citrate [STM-182-1]
[3]
  BET Active Surface Area: 19.85

## ferric citrate [PAN031203E]
[4]
  Intrinsic Dissolution Rates: 3.13 mg/cm2/min

## ferric citrate [STM-134]
[4]
  Intrinsic Dissolution Rates: 1.88 mg/cm2/min
